The text below walks through data of article PMC6823368 (Scientific Reports, 2019).

The subject of data set [1] is plasma protein. As to conditions: cited from earlier work.
For data set [2], the system named is 3A4. As to conditions: hepatic isoenzyme; cited from earlier work.
Data set [3] has as its system 2D6. As to conditions: hepatic isoenzyme; cited from earlier work.
The nature of data set [4]: Safety evaluations (adverse events, clinical and laboratory examinations).
Description: The safety assessments were conducted on account of clinical examinations, such as evaluation of general subject appearance, vital signs and routine hematology and biochemistry assays[35], together with adverse events evaluation (AEs), conducted at screening, pretreatment, post-treatment (day 7) and end of trial (day 16). […] AEs were defined as mild, moderate or severe[37]. Determination of causal relationship between AEs and study drugs followed the criterions announced by the World Health Organization[27].
Details of data set [5]: method as in earlier work. Conditions: cited from earlier work.
The test system of data set [6] is COX-2. Conditions: cited from earlier work.
Data set [7] has as its system COX-1. As to conditions: read-out: 50% inhibitory concentration (IC50) of COX-1; cited from earlier work.
The subject of data set [8] is CYP2C9. As to conditions: hepatic isoenzyme; cited from earlier work.
The conditions of data set [9]: n=12; for Cmax / MRT0-∞: mean (SD); for Tmax: median (range).
Description: The volunteers were hospitalized on day-1 (the day before the study), 10 hours of fasting was required before administration[27].
The chromatographic separation was carried out on an LC system (Shimadzu LC-20AD, Tokyo, Japan) using water and acetonitrile, and AB QTRAP 4000 system (AB Sciex, Foster City, CA, USA) in positive electrospray ion mode was hired for quantification[29]–[31]. […] Liquid-liquid extraction with 3 mL dichloromethane: diethyl ether: (2:3, v/v) was employed for 200 μL human plasma.
(§1) The measurement outcomes contained area under the profile (AUC0-t), the terminal half-life (t1/2), maximum plasma concentration observed (Cmax), time of maximum concentration (Tmax). AUC from 0 to infinity (AUC0-∞). Parameters of pharmacodynamic were estimated from the INR data on each period. PT (INR) was measured with the use of prothrombin complex assay (STA-R, SPA 50 Reagent, Diagnostica stago)[34]. Maximum INR (INRmax) and baseline INR (INRbaseline) were determined by PTtest divide PTnormal.
(§2) Log-transformation of pharmacodynamic parameters INRmax and INR(AUC) were applied.
The test system of data set [10] is vitamin K-dependent coagulation factors. Conditions: cited from earlier work.
In data set [11] the test system is prothrombin time (INR). As to conditions: area under INR-time profile 0-[…]; 5 mg warfarin; n=12.
Description: Current study is phase I clinical trial, which was designed as open-labeled and fixed-sequence, and all the information/data were collected from a single center. […] The volunteers were hospitalized on day-1 (the day before the study), 10 hours of fasting was required before administration[27]. Subjects should avoid any activities involved in risks of haemorrhage[9].
as §1, §2
Where [12] appears, read: warfarin 5 mg with steady-state imrecoxib.

Each structure is given as a SMILES string. Read-outs that look alike come from different tables or passages of the source.

On to `CCCN1CC(c2ccc(S(C)(=O)=O)cc2)=C(c2ccc(C)cc2)C1=O` [Imrecoxib, 4-(4-methylsulfonyl-phenyl)-1-propyl-3-(p-tolyl)-1H-pyrrol-2(5H)-one], for which the “protein bound in plasma” value in data set [1] is recorded as 96%. Moreover, the “rate of metabolism by CYP3A4” value in [2] is 16.4%. The “rate of metabolism by CYP2D6” value in [3] is given as 21.1%. The adverse event result in [4] (one subject, period 2, Day 8 after first dose (200 mg), about 1.5 hours, resolved without treatment, possibly related) is given as “mild abdominal/upper abdominal discomfort”. Further, in [5] (200 mg bid for 11 consecutive days), the accumulation in plasma result was “No accumulated effects”. In data set [5], the t1/2 was 20 h. Besides, the Tmax in data set [5] (following oral consumption) was 2 h. The “single-dose pharmacokinetics dose linearity” value in data set [5] (over the 30 to 200 mg dose range) is listed as “linear”. The “selective index (IC50, COX-1/COX2)” value in data set [6] (between that of meloxicam and celecoxib) is reported as 6.39. Also, the IC50 in data set [6] (read-out: 50% inhibitory concentration (IC50) of COX-2) is 18 ± 4 nM; in [7] it was 115 ± 28 nM. In addition, the “rate of metabolism by CYP2C9” value in [8] is recorded as 62.5%.

For `CC(=O)C[C@H](c1ccccc1)c1c(O)c2ccccc2oc1=O` [R-warfarin], in data set [9] (warfarin 5 mg alone), the Cmax is 285.25 (39.66) μg/L, the “MRT0-∞” value is 88.41 (19.96) hr and the Tmax is listed as 1.0 (0.5–3.0) hr. In [9] (setting [12]), the Cmax is 300.75 (36.61) μg/L, the “MRT0-∞” value is 83.44 (13.39) hr and the Tmax is recorded as 0.8 (0.5–2.0) hr.

Take `CC(=O)C[C@@H](c1ccccc1)c1c(O)c2ccccc2oc1=O` [S-warfarin]: in data set [9] (warfarin 5 mg alone), the Cmax is 294.92 (50.35) μg/L, the “MRT0-∞” value is recorded as 66.44 (15.76) hr and the Tmax is reported as 1.0 (0.5–3.0) hr. For the same compound, in [9] (setting [12]), the Cmax was 300.42 (34.01) μg/L, the “MRT0-∞” value is 63.35 (12.78) hr and the Tmax is given as 0.8 (0.5–2.0) hr. Moreover, the “share of anticoagulant activity of warfarin” value in [10] is 85%.

With `CC(=O)CC(c1ccccc1)c1c(O)c2ccccc2oc1=O` (stereo not shown) [Warfarin], the “INR (AUC)” value in data set [11] is given as 143.47. Also, the safety and tolerance result in [4] (healthy volunteers, across the trial) is “safey and good tolerance”. In [4] (one subject, period 1, day 7, upper limit of normal 6.8 μmol/L, grade 1 AE, considered unrelated to study drugs), the “transient elevated direct bilirubin” value was 9.6 µmol/L.
